Values joined by “and” are separate entries in the source; they are usually repeats but may differ in a detail not shown here. Equal values may be shown once.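 Assay format: 96-well plates, 48-hour exposure. The concentration for full growth arrest is given as TGI.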
Tests used:
Assay in all cases: NCI tumour cell line growth inhibition, 48 h
[1] = test system: BT-549 breast
[2] = test system: HOP-92 NSCLC
[3] = test system: LOX IMVI melanoma
[4] = test system: MCF7 breast
[5] = test system: MDA-N
[6] = test system: OVCAR-5 ovarian
[7] = test system: SF-295 CNS
[8] = test system: SK-OV-3 ovarian
[9] = test system: SN12C renal
[10] = test system: U251 CNS
[11] = test system: UO-31 renal
[12] = test system: MOLT-4 leukemia

Compound | TGI [1] | TGI [2] | TGI [3] | TGI [4] | TGI [5] | TGI [6] | TGI [7] | TGI [8] | TGI [9] | TGI [10] | TGI [11] | TGI [12]
Cc1ccc(OCC2OC(n3cnc4c(N(C)C)nc(Br)nc43)CC2Oc2ccc(C)cc2)cc1 (stereo not drawn) | > 100 µM | > 100 µM | > 100 µM | > 100 µM | > 100 µM | > 100 µM | > 100 µM | > 100 µM | > 100 µM | > 100 µM | > 100 µM | 
CCOC(=O)N1CCN(c2ccc3c(C)cc(C)nc3n2)CC1 | > 100 µM | > 100 µM | > 100 µM | > 100 µM | > 100 µM | > 100 µM | > 100 µM | > 100 µM | > 100 µM | > 100 µM | > 100 µM | > 100 µM
COc1ccc2[nH]c(Cl)c(/C=C3/C(=O)Nc4cc(C)c(OC)cc43)c2c1 | 21.5 µM | 28.9 µM | 17.5 µM | 14.4 µM | 3.5 µM | 27.2 µM | 6 µM | 9.4 µM | 20.1 µM | 18 µM | 28.5 µM | > 100 µM
COc1ccccc1C1SCC(=O)N1c1ccc(-c2ccc(-n3c(-c4ccccc4)nc4ccccc4c3=O)cc2)cc1 (stereo not drawn) | > 100 µM |  | > 100 µM | > 100 µM | > 100 µM | > 100 µM | > 100 µM | > 100 µM | > 100 µM | > 100 µM | > 100 µM | > 100 µM
COc1cc(C2SCC(=O)N2c2ccc(-n3c(-c4ccccc4)nc4ccccc4c3=O)cc2)ccc1O (stereo not drawn) | > 100 µM | 68.9 µM | > 100 µM | > 100 µM | > 100 µM | > 100 µM | > 100 µM | > 100 µM |  | > 100 µM | 97.7 µM | > 100 µM
O=C1C(NCCc2ccc(O)c(O)c2)=CC(=O)c2ncccc21 | 19.6 µM | 54.3 µM | 26.7 µM | 15.8 µM | 4.74 µM | 40.2 µM | 28.5 µM | 38.5 µM | 34.4 µM | 12.8 µM | 24.4 µM | 34.6 µM
O=C1C(F)=CC(COC(c2ccccc2)(c2ccccc2)c2ccccc2)OC1n1cc(F)c(=O)[nH]c1=O (stereo not drawn) | 4.38 µM | 5.52 µM | 3.54 µM | 4.96 µM | 3.38 µM | 4.61 µM | 5.06 µM | 14.4 µM | 4.29 µM | 4.71 µM | 5.61 µM | 4.81 µM
Cc1ccc(N=Nc2c(O)ccc3cc(S(=O)(=O)O)ccc23)c(C)c1 | > 100 µM | > 100 µM |  | > 100 µM | > 100 µM | > 100 µM | > 100 µM | > 100 µM | > 100 µM | > 100 µM | > 100 µM | > 100 µM
NC(=Nc1ccc(O)cc1)S(=O)(=O)O | > 100 µM | > 100 µM | > 100 µM | > 100 µM | > 100 µM | > 100 µM | > 100 µM | > 100 µM | > 100 µM | > 100 µM | > 100 µM | > 100 µM
Clc1ccc(Cc2nc3ccc(CCN4CCN(c5ccccc5)CC4)cc3[nH]2)cc1 | 34 µM | 73.8 µM | 27 µM | 37.6 µM | 30.6 µM | 66.4 µM | 26.5 µM | 38.4 µM | 33.8 µM | 26.5 µM | 20.3 µM | 40.6 µM
O=C(NCCC(F)(F)C(F)(F)C(F)(F)C(F)(F)F)NC1OC(CO)C(O)C(O)C1O (stereo not drawn) | > 100 µM | > 100 µM | > 100 µM | > 100 µM | > 100 µM | > 100 µM | > 100 µM | > 100 µM | > 100 µM | > 100 µM | > 100 µM | > 100 µM
CNc1ccc(-c2nc3cc(C)ccc3o2)cc1 | > 100 µM | > 100 µM | > 100 µM | > 100 µM | > 100 µM | > 100 µM | > 100 µM | 61 µM | > 100 µM | > 100 µM | > 100 µM | > 100 µM
O=C1NC(N/N=C\C(O)C(O)C(O)CO)=N/C1=C/c1ccc(Cl)cc1 (stereo not drawn) | > 100 µM | > 100 µM | > 100 µM | > 100 µM | > 100 µM | > 100 µM | > 100 µM | > 100 µM | > 100 µM | > 100 µM | > 100 µM | 55.6 µM and 61.4 µM
CCCCCC(=O)N[C@@H](c1ccccc1)C(O)C(=O)OC1C[C@@]2(O)C(OC(=O)c3ccccc3)C3[C@](C)(C(=O)[C@H](O)C(=C1C)C2(C)C)C(OC1OCC(O)C(O)C1O)C[C@H]1OC[C@@]31OC(C)=O (stereo partly drawn) | > 100 µM | > 100 µM |  | > 56.7 µM | 1.03 µM | > 100 µM | > 93.7 µM | 57.2 µM | > 100 µM | > 100 µM | > 100 µM | > 100 µM
CCOC(=O)/C(=C\c1ccc(N(C)C)cc1)S(=O)(=O)C(F)(F)C(F)(F)C(F)(F)C(F)(F)F | > 100 µM | > 100 µM | > 100 µM | > 100 µM | > 100 µM | > 100 µM | > 100 µM | > 100 µM | > 100 µM | > 100 µM | > 100 µM | > 100 µM
O=C(/C=C/c1ccsc1)c1ccco1 | 33.2 µM | 30.6 µM | 14.5 µM | 6.32 µM | 25.2 µM | 34.9 µM | 27.2 µM | 42.3 µM | 28.6 µM | 20.3 µM | 22.7 µM | 36 µM
Clc1cc2c(c(CSC3=NCN(CC4CC4)CN3)c1)OCOC2 | 51.5 µM | > 100 µM | > 100 µM | 93.8 µM | 38.6 µM | 48.9 µM | > 100 µM | 67.1 µM | > 100 µM | 53.1 µM | 37.1 µM | 64 µM
O=c1/c(=C\c2ccccc2)sc2n1C(c1ccccc1)C1(O)CCCCC1N=2 (stereo not drawn) | > 100 µM |  | > 100 µM | > 100 µM | > 100 µM | > 100 µM |  |  | > 100 µM | > 100 µM | > 100 µM | > 100 µM

Reference: PubChem BioAssay (NCI)
